Reference: patent publication US11207430B2, “Gadolinium expressed lipid nanoparticles for magnetic resonance imaging” (University of Washington, priority 2009, dated 2021)
“Also recorded” adds a separate entry of the source.

Legend:
[1] = tested on: lymph nodes; test: Primate lymphatic MRI study (DCE MRI after subcutaneous injection); type: in vivo, M. Nemestrina; conditions: animals injected subcutaneously
Experimental: In vivo imaging of the lymph nodes using Gd-DTPA-lipid nanoparticles for dynamic contrast enhanced (DCE) MRI was performed in a 1.5T MR scanner. The pigtailed macaque (M. Nemestrina) was anesthetized with inhaled isofluorane (1-2%) and closely monitored during the experiments. A pre-contrast image of the primate was recorded to determine proper lymph node location and fine-tune the imaging parameters. The animal was removed from the MR scanner and injected subcutaneously at four sites. […] The total dose of Gd is estimated to be 24.4 μmol/kg for the primate studies.

[2] = tested on: vasculature; test: Rat vascular MRI study (DCE MRI after intravenous injection); type: in vivo; conditions: 0.01 mmol/kg nanoparticles or 0.05 mmol/kg OMNISCAN, 5 min and 14-15 min
Experimental: In vivo imaging of the rat using Gd-DTPA-lipid nanoparticles for dynamic contrast enhanced (DCE) MRI was performed in a 3.0T MR scanner. The rats (SD) was anesthetized with inhaled isofluorane (1-2%) and closely monitored during the experiments. A pre-contrast image of the rat was recorded to determine proper location, orientation and fine-tune the imaging parameters. The animal was removed from the MR scanner and injected with […] of indicated Gd contrast media through femoral vein. The images were recorded on a Signa […] Scanner using a surface coil 12×12 inch.

[3] = clinical use; cited from earlier work

CNC(=O)CN(CCN(CCN(CC(=O)[O-])CC(=O)NC)CC(=O)[O-])CC(=O)[O-].[Gd+3] [OMNISCAN, Gd-DTPA-BMA]
Time within which signal in lymphatic system dissipates [1]: ≤ 20 min | Localization of contrast enhancement [2]: diffused throughout and does not localize in the vasculature, well-perfused tissues, or the lymph nodes; also recorded: diffuse contrast localization with no vascular definition | Clearance time [3]: cleared within a few minutes
